Assay results from patent publication US20260125378A2, “Heterocyclic Compounds” (BeOne Medicines I GmbH, priority 2023, published 2026).

Legend:
[1] = target: T1, Full length DGKζ (in-house protein M1-V929) (Homo sapiens, UniProt Q13574); assay: Biochemical DGK IC50 assay (ADP-Glo, lipid micelle substrate), DGKζ; settings: 1 hour preincubation, 1 hour reaction, room temperature
T1 construct: His (N); TEV site (N); made in house; host or cells: Sf9 insect cells (Bac-to-Bac baculovirus)
Outline: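 Enzyme: full-length human DGKζ M1-V929, produced in baculovirus-infected Sf9 cells; substrate DAG/PS micelles. Buffer 50 mM HEPES, 10 mM MgCl2, 0.01 mM CaCl2, 0.1 mM Na3VO4.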

[2] = target: T2, Full length DGKα (D21-10BG, SignalChem) (Homo sapiens, UniProt P23743); assay: Biochemical DGK IC50 assay (ADP-Glo, lipid micelle substrate), DGKα; settings: 1 hour preincubation, 1 hour reaction, room temperature
T2 construct: Full length DGKα (D21-10BG, SignalChem); purchased SignalChem D21-10BG
T2 sequence (P23743 whole entry): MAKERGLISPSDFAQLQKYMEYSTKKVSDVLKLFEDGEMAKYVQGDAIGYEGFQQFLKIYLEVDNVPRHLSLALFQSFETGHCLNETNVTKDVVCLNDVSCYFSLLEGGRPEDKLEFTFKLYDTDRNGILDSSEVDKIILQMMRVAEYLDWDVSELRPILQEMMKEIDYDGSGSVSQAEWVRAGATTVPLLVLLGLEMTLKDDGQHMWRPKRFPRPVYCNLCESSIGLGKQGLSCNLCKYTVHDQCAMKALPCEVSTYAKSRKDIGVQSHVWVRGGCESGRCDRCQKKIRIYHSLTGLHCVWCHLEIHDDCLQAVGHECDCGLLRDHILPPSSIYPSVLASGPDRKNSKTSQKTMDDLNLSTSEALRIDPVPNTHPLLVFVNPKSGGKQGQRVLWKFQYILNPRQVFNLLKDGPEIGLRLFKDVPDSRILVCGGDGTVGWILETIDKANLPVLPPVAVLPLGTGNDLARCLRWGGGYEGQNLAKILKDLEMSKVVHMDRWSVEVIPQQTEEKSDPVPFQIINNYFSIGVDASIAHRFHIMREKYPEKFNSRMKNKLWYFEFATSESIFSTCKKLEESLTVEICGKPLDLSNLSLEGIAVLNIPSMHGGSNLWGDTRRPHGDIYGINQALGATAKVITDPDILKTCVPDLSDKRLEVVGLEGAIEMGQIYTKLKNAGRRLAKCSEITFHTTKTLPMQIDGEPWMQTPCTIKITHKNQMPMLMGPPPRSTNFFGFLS
Outline: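 ADP-Glo luminescence quantified ADP produced after a 1 h room-temperature reaction of full-length DGKα on DAG/PS micelles, in HEPES buffer containing MgCl2, CaCl2, vanadate, BSA and Tween-20. IC50 values derive from activity inhibition over a compound concentration series.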

T1 sequence (Q13574 1-929 isoform Q13574-4): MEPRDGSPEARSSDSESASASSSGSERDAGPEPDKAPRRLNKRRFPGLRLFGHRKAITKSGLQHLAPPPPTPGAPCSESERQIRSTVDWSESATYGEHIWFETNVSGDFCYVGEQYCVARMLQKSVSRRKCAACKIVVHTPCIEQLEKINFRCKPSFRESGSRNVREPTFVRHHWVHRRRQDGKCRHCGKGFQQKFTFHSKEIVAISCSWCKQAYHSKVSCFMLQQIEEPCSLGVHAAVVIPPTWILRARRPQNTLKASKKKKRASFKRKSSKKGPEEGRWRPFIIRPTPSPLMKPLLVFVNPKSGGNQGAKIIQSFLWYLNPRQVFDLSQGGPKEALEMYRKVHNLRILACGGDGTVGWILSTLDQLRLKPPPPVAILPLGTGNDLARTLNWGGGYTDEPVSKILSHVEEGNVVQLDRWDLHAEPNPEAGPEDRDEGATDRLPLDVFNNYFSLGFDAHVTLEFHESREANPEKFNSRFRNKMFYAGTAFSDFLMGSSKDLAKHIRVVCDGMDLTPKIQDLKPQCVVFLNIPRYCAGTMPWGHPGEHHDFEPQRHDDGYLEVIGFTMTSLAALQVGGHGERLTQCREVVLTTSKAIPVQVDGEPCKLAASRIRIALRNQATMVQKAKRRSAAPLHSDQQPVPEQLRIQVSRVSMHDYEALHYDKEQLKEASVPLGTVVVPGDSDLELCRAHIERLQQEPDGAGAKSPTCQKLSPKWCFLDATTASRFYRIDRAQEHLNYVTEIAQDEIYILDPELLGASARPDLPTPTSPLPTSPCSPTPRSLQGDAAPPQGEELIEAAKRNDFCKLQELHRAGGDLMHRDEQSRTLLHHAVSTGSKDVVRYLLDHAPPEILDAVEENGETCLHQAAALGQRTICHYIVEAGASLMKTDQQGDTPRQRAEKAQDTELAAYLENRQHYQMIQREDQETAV

CCn1c(CC#N)nc2c(N3C[C@@H](C)N(C(C)c4ccc5c(n4)C(C)(C)CO5)C[C@@H]3C)nc(=O)n(C)c21 (stereo partly drawn) [Compound A181, 2-(6-((2S,5R)-4-(1-(3,3-dimethyl-2,3-dihydrofuro[3,2-b]pyridin-5-yl)ethyl)-2,5-dimethylpiperazin-1-yl)-9-ethyl-3-methyl-2-oxo-3,9-dihydro-2H-purin-8-yl)acetonitrile]
IC50 [1]: 17 nM | IC50 [2]: > 150000 nM

CCn1c(CC#N)nc2c(N3C[C@@H](C)N(C(C)c4ccc5c(n4)OC(C)(C)C5)C[C@@H]3C)nc(=O)n(C)c21 (stereo partly drawn) [Compound A180, 2-(6-((2S,5R)-4-(1-(2,2-dimethyl-2,3-dihydrofuro[2,3-b]pyridin-6-yl)ethyl)-2,5-dimethylpiperazin-1-yl)-9-ethyl-3-methyl-2-oxo-3,9-dihydro-2H-purin-8-yl)acetonitrile]
IC50 [1]: 4440 nM | IC50 [2]: > 150000 nM

CCn1c(CC#N)nc2c(N3C[C@@H](C)N(C(C)c4cc(F)c5c(c4)OC(C)(C)O5)C[C@@H]3C)nc(=O)n(C)c21 (single isomer, unassigned) [Compound A173b]
IC50 [1]: 412 nM | IC50 [2]: 83300 nM

CCn1c(CC#N)nc2c(N3C[C@@H](C)N(C(C)c4ccc5c(c4)OC(F)(F)O5)C[C@@H]3C)nc(=O)n(C)c21 (single isomer, unassigned) [Compound A99b]
IC50 [1]: 536 nM | IC50 [2]: 46500 nM

CCn1c(CC#N)nc2c(N3C[C@@H](C)N(C(C)c4cccc(OC(C)C)n4)C[C@@H]3C)nc(=O)n(C)c21 (single isomer, unassigned) [Compound A117b]
IC50 [1]: 75 nM | IC50 [2]: 145000 nM

CC(c1ccc2c(c1)OC(F)(F)C(F)(F)O2)N1C[C@H](C)N(c2nc(=O)n(C)c3c2nc(CC#N)n3C)C[C@H]1C (single isomer, unassigned) [Compound A79b]
IC50 [1]: 529 nM | IC50 [2]: 14800 nM

CC(c1ccc2c(c1)OC(C)(C)CO2)N1C[C@H](C)N(c2nc(=O)n(C)c3c2nc(CC#N)n3CC(F)F)C[C@H]1C (stereo partly drawn) [Compound A87, 2-(9-(2,2-difluoroethyl)-6-((2S,5R)-4-(1-(3,3-dimethyl-2,3-dihydrobenzo[b][1,4]dioxin-6-yl)ethyl)-2,5-dimethylpiperazin-1-yl)-3-methyl-2-oxo-3,9-dihydro-2H-purin-8-yl)acetonitrile]
IC50 [1]: 2 nM | IC50 [2]: 21900 nM

CCn1c(CC#N)nc2c(N3C[C@@H](C)N(C(C)c4ccc5c(c4)OC(C)(C)O5)C[C@@H]3C)nc(=O)n(C)c21 (single isomer, unassigned) [Compound A85b]
IC50 [1]: 14 nM | IC50 [2]: 88600 nM

CCn1c(CC#N)nc2c(N3C[C@@H](C)N(C(C)c4ccc5c(c4F)OC(C)(C)O5)C[C@@H]3C)c(F)c(=O)n(C)c21 (mixture of isomers) [Compound A190, 2-(3-ethyl-6-fluoro-7-((2S,5R)-4-(1-(4-fluoro-2,2-dimethylbenzo[d][1,3]dioxol-5-yl)ethyl)-2,5-dimethylpiperazin-1-yl)-4-methyl-5-oxo-4,5-dihydro-3H-imidazo[4,5-b]pyridin-2-yl)acetonitrile]
IC50 [1]: 13 nM | IC50 [2]: 106000 nM

CC[C@H]1CN(C(C)c2ccc3c(c2)OC(C)(C)CO3)[C@H](CC)CN1c1nc(=O)n(C)c2c1nc(CC#N)n2C (single isomer, unassigned) [Compound A64b]
IC50 [1]: 14 nM | IC50 [2]: 4750 nM

CCn1c(CC#N)nc2c(N3C[C@@H](C)N(C(C)c4cccc(N5CC6(COC6)C5)c4)C[C@@H]3C)nc(=O)n(C)c21 (stereo partly drawn) [Compound A140, 2-(6-((2S,5R)-4-(1-(3-(2-oxa-6-azaspiro[3.3]heptan-6-yl)phenyl)ethyl)-2,5-dimethylpiperazin-1-yl)-9-ethyl-3-methyl-2-oxo-3,9-dihydro-2H-purin-8-yl)acetonitrile]
IC50 [1]: 594 nM | IC50 [2]: > 150000 nM

CC[C@H]1CN(C(C)c2ccc3ncc(C)nc3c2)[C@H](CC)CN1c1nc(=O)n(C)c2c1nc(CC#N)n2C (single isomer, unassigned) [Compound A51b]
IC50 [1]: 265 nM | IC50 [2]: 22300 nM

COCc1cc(F)ccc1C(C)N1C[C@H](C)N(c2nc(=O)n(C)c3c2nc(CC#N)n3C)C[C@H]1C (single isomer, unassigned) [Compound A27a]
IC50 [1]: 569 nM | IC50 [2]: > 10000 nM
